Target: T1, TK2117 (with TK2118 / UblB) (Thermococcus kodakarensis, UniProt Q5JEX2)
T1 construct: tag removal not mentioned; with Ubiquitin-like sulfur-carrier protein UblB (MoaD family)
T1 sequence (Q5JEX2 1-232): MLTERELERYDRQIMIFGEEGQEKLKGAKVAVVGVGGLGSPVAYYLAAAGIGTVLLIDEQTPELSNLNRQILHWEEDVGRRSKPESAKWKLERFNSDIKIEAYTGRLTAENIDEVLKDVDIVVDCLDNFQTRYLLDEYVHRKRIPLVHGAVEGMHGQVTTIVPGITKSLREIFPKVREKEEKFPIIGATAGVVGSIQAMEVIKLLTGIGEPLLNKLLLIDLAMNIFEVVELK
T1 sequence (Q5JEX1 1-88 partner): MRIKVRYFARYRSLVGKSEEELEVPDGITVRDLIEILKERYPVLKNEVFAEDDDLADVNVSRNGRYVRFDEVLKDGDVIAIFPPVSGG
Experiment: pyrophosphate release measured as phosphate (Biomol Green, inorganic pyrophosphatase)
Type: biochemical
Conditions: 10 mM ATP; 5 mM MgCl2; 4.0 µM TK2117; 10.0 µM TK2118 as co-substrate; pH 8.0; 80 °C

## Nc1ncnc2c1ncn2[C@@H]1O[C@H](COP(=O)(O)OP(=O)(O)OP(=O)(O)O)[C@@H](O)[C@H]1O [ATP]
  pyrophosphate release measured as phosphate (Biomol Green, inorganic pyrophospha): TK2117 formed pyrophosphate in the presence of TK2118

— article PMC11323500, “Functional redundancy of ubiquitin-like sulfur-carrier proteins facilitates flexible, efficient sulfur utilization in the primordial archaeon Thermococcus kodakarensis” (mBio, 2024)
